The text below walks through data of ChEMBL document CHEMBL5385924, “Stereoselective Synthesis of Xylodonin A and 22-Hydroxyxylodonin A and Discovery of Analogues with Cytotoxic Activity” (J Nat Prod, 2024).

A word on the IC50: it is the concentration that inhibits the measured activity by half.

One data set has as its system Pseudomonas aeruginosa. As to the kind of experiment: Antibacterial activity against Pseudomonas aeruginosa assessed as inhibition of bacterial growth. It is filed as functional, organism-based.
For a further data set, the system named is Salmonella typhimurium. As to the kind of experiment: Antibacterial activity against Salmonella typhimurium assessed as inhibition of bacterial growth. It is filed as functional, organism-based. The following applies: Salmonella enterica subsp. enterica serovar Typhimurium.
The subject of the next data set is Escherichia coli. As to the kind of experiment: Antibacterial activity against Escherichia coli assessed as inhibition of bacterial growth. It is filed as functional, organism-based.
The next data set deals with Staphylococcus aureus. Put plainly: Antibacterial activity against Staphylococcus aureus assessed as inhibition of bacterial growth. In kind it is functional, organism-based.
A further data set concerns Proteus vulgaris. As to the kind of experiment: Antibacterial activity against Proteus vulgaris assessed as inhibition of bacterial growth. It is filed as functional, organism-based.
Data set [1] relates to Mycolicibacterium smegmatis. As to the kind of experiment: Antibacterial activity against Mycobacterium smegmatis assessed as inhibition of bacterial growth. In kind it is functional, organism-based.
Another data set concerns Candida albicans. As to the kind of experiment: Antifungal activity against Candida albicans assessed as inhibition of fungal growth. In kind it is functional, organism-based.
In data set [2] the test system is HepG2. As to the kind of experiment: Antiproliferative activity against human HepG2 cells assessed as reduction in cell viability measured after 48 hrs by CCK8 assay. It is filed as functional, cell-based. The following applies: HepG2, 48 h.
The nature of data set [3]: Cytotoxicity against human HL7702 cells assessed as reduction in cell viability measured after 48 hrs by CCK8 assay. The following applies: HL7702 (L02) cells. In kind it is toxicity, cell-based. In general terms: Tetrazolium assays rely on reduction of a dye to a coloured formazan, in cell work by metabolically active cells.
The nature of data set [4]: Selectivity index, ratio of IC50 for cytotoxicity against human HL7702 cells to IC50 for antiproliferative activity against human HepG2 cells. In kind it is toxicity, cell-based. The settings on record: HL7702 cells versus HepG2 cells, read-out: Ratio IC50.
The subject of data set [5] is HepG2. As to the kind of experiment: Inhibition of colony formation in human HepG2 cells assessed as relative colony formation area at 5 uM treated every 6 hrs for 24 hrs followed by culturing in fresh medium for 7 days by Giemsa staining based analysis. In kind it is functional. On the set-up: scale not given: the % may be the effect or the level left.
Data set [6] has as its system HepG2. Put plainly: Inhibition of colony formation in human HepG2 cells assessed as relative colony formation area at 10 uM treated every 6 hrs for 24 hrs followed by culturing in fresh medium for 7 days by Giemsa staining based analysis. The arrangement: scale not given: the % may be the effect or the level left. It is filed as functional.
The test system of data set [7] is HepG2. As to the kind of experiment: Inhibition of colony formation in human HepG2 cells assessed as relative colony formation area at 15 uM treated every 6 hrs for 24 hrs followed by culturing in fresh medium for 7 days by Giemsa staining based analysis. It is filed as functional. On the set-up: scale not given: the % may be the effect or the level left.
Data set [8] has as its system HepG2. Put plainly: Inhibition of colony formation in human HepG2 cells assessed as relative colony formation area at 20 uM treated every 6 hrs for 24 hrs followed by culturing in fresh medium for 7 days by Giemsa staining based analysis. It is filed as functional. On the set-up: scale not given: the % may be the effect or the level left.
In data set [9] the test system is HepG2. Put plainly: Induction of apoptosis in human HepG2 cells assessed as viable cells at 10 uM measured after 48 hrs by AnnexinV-FITC/PI staining based flow cytometry (reference value: 95.88%). In kind it is functional. The settings on record: read-out: Activity.
Data set [10] concerns HepG2. Put plainly: Induction of apoptosis in human HepG2 cells assessed as early apoptotic cells at 10 uM measured after 48 hrs by AnnexinV-FITC/PI staining based flow cytometry (reference value: 1.21%). It is filed as functional. Background: In flow cytometry, cells or beads pass a laser one at a time.
The subject of data set [11] is HepG2. As to the kind of experiment: Induction of apoptosis in human HepG2 cells assessed as late apoptotic cells at 10 uM measured after 48 hrs by AnnexinV-FITC/PI staining based flow cytometry (reference value: 2.73%). It is filed as functional.
Data set [12] relates to HepG2. As to the kind of experiment: Induction of apoptosis in human HepG2 cells assessed as necrotic cells at 10 uM measured after 48 hrs by AnnexinV-FITC/PI staining based flow cytometry (reference value: 0.19%). In kind it is functional.
The test system of data set [13] is HepG2. Put plainly: Induction of apoptosis in human HepG2 cells assessed as viable cells at 20 uM measured after 48 hrs by AnnexinV-FITC/PI staining based flow cytometry (reference value: 95.88%). In kind it is functional. The following applies: read-out: Activity.
The subject of data set [14] is HepG2. Put plainly: Induction of apoptosis in human HepG2 cells assessed as early apoptotic cells at 20 uM measured after 48 hrs by AnnexinV-FITC/PI staining based flow cytometry (reference value: 1.21%). It is filed as functional.
Data set [15] relates to HepG2. As to the kind of experiment: Induction of apoptosis in human HepG2 cells assessed as late apoptotic cells at 20 uM measured after 48 hrs by AnnexinV-FITC/PI staining based flow cytometry (reference value: 2.73%). It is filed as functional.
The subject of data set [16] is HepG2. As to the kind of experiment: Induction of apoptosis in human HepG2 cells assessed as necrotic cells at 20 uM measured after 48 hrs by AnnexinV-FITC/PI staining based flow cytometry (reference value: 0.19%). In kind it is functional.
Data set [17] deals with HepG2. As to the kind of experiment: Antimetastatic activity against human HepG2 cells assessed as inhibition of cell migration measured after 12 to 24 hrs by scratch wound healing assay. The settings on record: time 12-24 hrs. It is filed as functional, cell-based.

Calls of active or inactive are those of the source. No cut-off for these calls is given here.

For the molecule `CC1(C)CCC[C@]2(C)C3=C(COC3=O)C[C@H](O)[C@@H]12`, the result (with Pseudomonas aeruginosa; with Salmonella typhimurium; in the data set with Escherichia coli; in the data set on Staphylococcus aureus; in the data set on Proteus vulgaris; in data set [1]) was inactive. For the same molecule, the result with Candida albicans was inactive. In addition, the IC50 with HepG2 [2] is more than 50 µM.

In the case of `CC1(C)CCC[C@]2(C)C3=C(COC3=O)C[C@H](OC(=O)/C=C/c3ccccc3)[C@@H]12`, the outcome (in the data set with Pseudomonas aeruginosa; in the data set with Salmonella typhimurium; in the data set on Escherichia coli; with Staphylococcus aureus; with Proteus vulgaris; in [1]) was inactive. In addition, the result with Candida albicans was inactive. Besides, the IC50 with HepG2 [2] is more than 50 µM.

On to `CC(=O)Oc1ccc(/C=C/C(=O)O[C@H]2CC3=C(C(=O)OC3)[C@@]3(C)CCCC(C)(C)[C@H]23)cc1`, for which the outcome (in the data set with Pseudomonas aeruginosa; in the data set on Salmonella typhimurium; in the data set on Escherichia coli; with Staphylococcus aureus; in the data set with Proteus vulgaris; in data set [1]) was inactive. In addition, the result in the data set on Candida albicans was inactive. For the same molecule, in the data set with HepG2 [2], the half-maximal inhibitory concentration (IC50) amounted to 8.8 µM. In addition, the IC50 at 48 h in data set [3] was more than 100 µM. Besides, in [4], the selectivity ratio was more than 11.4. For the same molecule, the Activity with HepG2 [5] is 11.2%; in the data set with HepG2 [6] it was 8.1%; with HepG2 [7] it was 5.9%; with HepG2 [8], 2.3%; with HepG2 [10] it was 1.73%; in the data set with HepG2 [11], 6.96%. Besides, the Activity is 0.27% with HepG2 [12], 14.41% in the data set with HepG2 [14], 6.23% with HepG2 [15] and 0.2% in the data set with HepG2 [16]. Further, in the data set with HepG2 [9], the viability at 10 µM was found to be 91%. In the data set with HepG2 [13], the viability at 20 µM turned out to be 79.2%. In addition, the outcome in the data set on HepG2 [17] was Active.

Take `COc1cc([C@@H]2c3cc4c(cc3[C@@H](O[C@@H]3O[C@@H]5CO[C@@H](C)O[C@H]5[C@H](O)[C@H]3O)[C@H]3COC(=O)[C@H]23)OCO4)cc(OC)c1O` [ETOPOSIDE]: in the data set with HepG2 [2], the IC50 came to 5.9 µM. Besides, the IC50 at 48 h in [3] was 49.6 µM. The selectivity ratio in data set [4] is 8.4.

In the case of `CC1(C)CCC[C@]2(C)C3=C(COC3=O)C[C@H](OC(=O)/C=C/c3ccc(Cl)cc3)[C@@H]12`, the result (in the data set with Pseudomonas aeruginosa; in the data set with Salmonella typhimurium; in the data set on Escherichia coli; in the data set on Staphylococcus aureus; in the data set on Proteus vulgaris; in data set [1]) was inactive. Also, in the data set with Candida albicans, the result was inactive. For the same molecule, the IC50 in the data set with HepG2 [2] is more than 50 µM.

In the case of `CC1(C)CCC[C@]2(C)C3=C(COC3=O)C[C@H](OC(=O)/C=C/c3ccc(C(F)(F)F)cc3)[C@@H]12`, the outcome (in the data set with Pseudomonas aeruginosa; in the data set on Salmonella typhimurium; in the data set on Escherichia coli; in the data set on Staphylococcus aureus; with Proteus vulgaris; in data set [1]) was inactive. Further, in the data set on Candida albicans, the result was inactive. The concentration for half-maximal inhibition (IC50) in the data set with HepG2 [2] is more than 50 µM.

Turning to `CC1(C)CCC[C@]2(C)C3=C(COC3=O)C[C@H](OC(=O)/C=C/c3ccccc3F)[C@@H]12`, the outcome (in the data set on Pseudomonas aeruginosa; in the data set on Salmonella typhimurium; in the data set on Escherichia coli; in the data set with Staphylococcus aureus; with Proteus vulgaris; in data set [1]) was inactive. In addition, the outcome in the data set on Candida albicans was inactive. Further, the IC50 with HepG2 [2] was 22.2 µM. Further, the IC50 at 48 h in [3] is more than 100 µM. In addition, the selectivity ratio in data set [4] is more than 4.5.

On to `CC1(C)CCC[C@]2(C)C3=C(COC3=O)C[C@H](OC(=O)/C=C/c3ccc(O)cc3)[C@@H]12`, for which the outcome (with Pseudomonas aeruginosa; with Salmonella typhimurium; with Escherichia coli; with Staphylococcus aureus; in the data set with Proteus vulgaris; in [1]) was inactive. Moreover, the result in the data set on Candida albicans was inactive. Besides, the IC50 in the data set with HepG2 [2] is 14.2 µM. Also, the 50% inhibitory concentration (IC50) at 48 h in data set [3] was more than 100 µM. Further, the selectivity ratio in data set [4] was more than 6.9.
